Five compounds from ChEMBL document CHEMBL3352451, “Cyclic side-chain-linked opioid analogs utilizing cis- and trans-4-aminocyclohexyl-D-alanine” (Bioorg Med Chem, 2014) can be followed below.

Structures are written as SMILES. Bridge positions count the residues as written; N and C are the ends. Square brackets hold non-standard residues; d marks the D form. Peptide text beside a SMILES is read from it.

One assay deals with Mu-type opioid receptor (Rattus norvegicus, UniProt P33535). The assay can be described thus: Displacement of [3H]DAMGO from MOR in Wistar rat brain membranes by liquid scintillation counting method. The class given is cell membranes, Membrane. On the technique in general: Displacement assays read how much labelled ligand stays bound in the presence of the test substance.
Mu-type opioid receptor, sequence (P33535 whole entry): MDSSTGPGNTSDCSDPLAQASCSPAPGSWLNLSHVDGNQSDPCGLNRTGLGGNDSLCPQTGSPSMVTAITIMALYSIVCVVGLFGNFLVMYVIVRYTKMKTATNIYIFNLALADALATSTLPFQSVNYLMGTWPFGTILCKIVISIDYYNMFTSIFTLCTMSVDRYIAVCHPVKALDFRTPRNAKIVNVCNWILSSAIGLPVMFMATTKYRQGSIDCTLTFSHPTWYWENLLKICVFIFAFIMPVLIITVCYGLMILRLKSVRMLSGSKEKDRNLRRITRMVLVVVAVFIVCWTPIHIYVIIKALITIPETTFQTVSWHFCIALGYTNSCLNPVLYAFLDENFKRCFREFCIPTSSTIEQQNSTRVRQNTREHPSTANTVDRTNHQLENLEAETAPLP
For assay [1], the target named is Delta-type opioid receptor (Rattus norvegicus, UniProt P33533). Briefly: Displacement of [3H][Ile5,6]deltorphin-2 from DOR in Wistar rat brain membranes by liquid scintillation counting method. The class given is cell membranes, Membrane.
Delta-type opioid receptor, sequence (P33533 whole entry): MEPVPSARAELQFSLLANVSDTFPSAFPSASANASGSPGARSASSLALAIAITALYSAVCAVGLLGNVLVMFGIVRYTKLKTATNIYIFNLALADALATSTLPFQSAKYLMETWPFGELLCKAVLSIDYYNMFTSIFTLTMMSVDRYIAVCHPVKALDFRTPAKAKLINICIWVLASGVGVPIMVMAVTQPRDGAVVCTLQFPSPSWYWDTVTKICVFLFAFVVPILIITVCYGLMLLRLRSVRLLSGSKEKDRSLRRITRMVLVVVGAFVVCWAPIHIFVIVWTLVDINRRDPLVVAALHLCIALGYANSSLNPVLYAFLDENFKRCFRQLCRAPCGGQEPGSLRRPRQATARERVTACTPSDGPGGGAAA
The target of assay [2] is Kappa-type opioid receptor (Cavia porcellus, UniProt P41144). The assay can be described thus: Displacement of [3H]nor-BNI from KOR in Dunkin Hartley guinea pig membranes by liquid scintillation counting method. It is filed as cell membranes.
Kappa-type opioid receptor, sequence (P41144 whole entry): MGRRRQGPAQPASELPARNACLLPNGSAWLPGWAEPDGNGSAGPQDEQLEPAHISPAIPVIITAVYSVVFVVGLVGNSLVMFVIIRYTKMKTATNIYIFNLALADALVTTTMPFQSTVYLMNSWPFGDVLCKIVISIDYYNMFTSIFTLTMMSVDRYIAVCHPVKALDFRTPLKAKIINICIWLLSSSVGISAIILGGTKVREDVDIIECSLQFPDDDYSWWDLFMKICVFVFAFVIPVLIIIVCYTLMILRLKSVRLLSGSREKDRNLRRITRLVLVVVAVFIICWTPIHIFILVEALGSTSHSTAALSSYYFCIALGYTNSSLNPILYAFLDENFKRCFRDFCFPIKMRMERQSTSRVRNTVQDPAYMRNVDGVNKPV

For the compound `NC(=O)[C@@H]1CC(=O)N[C@H]2CC[C@H](CC2)C[C@@H](NC(=O)[C@@H](N)Cc2ccc(O)cc2)C(=O)N[C@@H](Cc2ccccc2)C(=O)N[C@@H](Cc2ccccc2)C(=O)N1`, the IC50 on Mu-type opioid receptor is 3.2 nM; in assay [1] it was > 1000 nM.
Take `Cc1cc(O)cc(C)c1C[C@H](N)C(=O)N[C@@H]1C[C@H]2CC[C@@H](CC2)NC(=O)C[C@@H](C(N)=O)NC(=O)[C@H](Cc2ccccc2)NC(=O)[C@H](Cc2ccccc2)NC1=O`: the IC50 on Mu-type opioid receptor was 0.022 nM; in assay [1], 0.38 nM; in assay [2], 25 nM.
On to `NC(=O)[C@@H]1CC(=O)N[C@H]2CC[C@@H](CC2)C[C@@H](NC(=O)[C@@H](N)Cc2ccc(O)cc2)C(=O)N[C@@H](Cc2ccccc2)C(=O)N[C@@H](Cc2ccccc2)C(=O)N1`, for which the IC50 on Mu-type opioid receptor amounted to 2.08 nM; in assay [1] it was 3.9 nM.
For the compound `NC(=O)[C@@H]1CC(=O)NCCCC[C@@H](NC(=O)[C@@H](N)Cc2ccc(O)cc2)C(=O)N[C@@H](Cc2ccccc2)C(=O)N[C@@H](Cc2ccccc2)C(=O)N1` (H-Y[dK]FFD-NH2; lactam 2-5), in assay [2], the IC50 is 2.36 nM.
`Cc1cc(O)cc(C)c1C[C@H](N)C(=O)N[C@@H]1C[C@H]2CC[C@H](CC2)NC(=O)C[C@@H](C(N)=O)NC(=O)[C@H](Cc2ccccc2)NC(=O)[C@H](Cc2ccccc2)NC1=O`: the results for the IC50 (at Mu-type opioid receptor; in assay [1]; in assay [2]) were 0.04 nM, > 1000 nM and > 1000 nM, respectively.

A word on the IC50: it is the concentration that inhibits the measured activity by half.
